Structures can show the parent of a compound that is named as a salt. Blank lines part the entries; values can stand above or below the compound they belong to.
Tests used:
myenteric neurons = conditions: Nemeth and Gullikson 1989; cited from earlier work
5-HT4 receptor [1] = conditions: Dumuis et al. 1989, mouse embryonic colliculi neurons; cited from earlier work
5-HT4 receptors = conditions: Craig and Clarke; cited from earlier work
5-HT4 receptor [2] = molecular target: 5-HT4 receptor (Rattus norvegicus, UniProt Q62758); experiment: cell-based; conditions: rat esophagus TMM contracted with carbachol (3 μM), 37° C., cumulative addition; read-out: 5-HT4 Agonism (Rat TMM) In Vitro Assay: EC50 values
Sequence of 5-HT4 receptor (Rattus norvegicus, UniProt Q62758) (Q62758 whole entry): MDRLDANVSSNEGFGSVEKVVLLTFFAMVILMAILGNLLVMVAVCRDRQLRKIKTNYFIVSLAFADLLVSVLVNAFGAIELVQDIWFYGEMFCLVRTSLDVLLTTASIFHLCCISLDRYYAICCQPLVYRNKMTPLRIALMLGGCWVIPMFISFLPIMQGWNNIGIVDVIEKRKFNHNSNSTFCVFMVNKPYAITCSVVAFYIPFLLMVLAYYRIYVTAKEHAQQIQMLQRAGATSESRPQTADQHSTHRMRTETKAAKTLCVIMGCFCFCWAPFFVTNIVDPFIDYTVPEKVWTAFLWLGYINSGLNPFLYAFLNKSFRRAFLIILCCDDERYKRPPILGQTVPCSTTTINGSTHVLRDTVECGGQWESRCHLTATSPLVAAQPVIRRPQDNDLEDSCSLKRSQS
Description: (§1) The 5-HT4 agonist activity was determined in the in vitro rat tunica muscularis mucosae (TMM) assay described herein. (Baxter et al., Naunyn Schmied Arch. Pharmacol, 1991, 343, 439). […] One with skill in the art could determine the activity of the compounds of the present invention using the methodology of these assays, described herein, without undue experimentation.
Agonist activity was determined utilizing relaxation of carbachol-contracted rat tunica muscularis mucosae (TMM). One 2 cm segment of intrathoracic esophagus proximal to the diaphragm was removed from male rats, weighing approximately 300 gm, and the outer muscle layers removed. The inner tunica muscularis mucosa was mounted under 0.2-0.3 g of tension in a tissue bath containing oxygenated Tyrode's solution at 37° C. […] Following a 30 min equilibrium period, tissues were isometrically contracted with carbachol (3 μM) to obtain a tonic contraction. A stable plateau was obtained within 20 min when test compound was added cumulatively to relax the muscle strip. EC50 values were obtained for each compound in tissues from 5 rats.

5-HT3 receptor = molecular target: T1, 5-HT3 receptor (Rattus norvegicus, UniProt P35563); experiment: 5-HT3 radioligand receptor binding assay ([3H]-GR65630), rat brain cortex membranes
T1 construct: Brain cortices were obtained from male rats and a membrane fraction prepared by standard techniques; from tissue; host or cells: male rat brain cortex membranes
T1 sequence (P35563 24-483): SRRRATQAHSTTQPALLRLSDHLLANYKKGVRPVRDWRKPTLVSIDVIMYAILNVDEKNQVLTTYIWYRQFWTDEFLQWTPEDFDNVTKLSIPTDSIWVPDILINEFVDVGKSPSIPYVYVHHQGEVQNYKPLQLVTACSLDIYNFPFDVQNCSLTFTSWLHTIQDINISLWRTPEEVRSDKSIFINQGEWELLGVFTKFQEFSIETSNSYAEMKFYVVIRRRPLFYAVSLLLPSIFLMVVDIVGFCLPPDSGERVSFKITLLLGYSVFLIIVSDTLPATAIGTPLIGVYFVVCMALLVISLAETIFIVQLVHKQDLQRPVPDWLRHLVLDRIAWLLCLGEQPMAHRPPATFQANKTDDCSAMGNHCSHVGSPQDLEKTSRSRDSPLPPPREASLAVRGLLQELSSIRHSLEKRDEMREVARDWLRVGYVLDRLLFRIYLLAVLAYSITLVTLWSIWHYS
Description: as §1
Procedure: GR65630 binds to the 5-HT3 receptor. Brain cortices were obtained from male rats and a membrane fraction prepared by standard techniques. 0.04 mg of membrane prep was incubated with 0.2 nM [^3 H]-GR65630 for 66 minutes at 22° C. […] Membranes were filtered and washed 3 times and the filters were counted to determine [^3 H]-GR65630 specifically bound. [Kilpatrick GJ, Jones BJ and Tyers MB, Identification and Distribution of 5-HT3 Receptors in Rat Brain Using Radioligand Binding Assay, Nature, 330, 746-748 (1987)].

GI tract = conditions: various animal models; cited from earlier work
[3] = test system: guinea pig stomach muscle strips; conditions: cited from earlier work; for guinea pig stomach muscle strip contraction in vitro: Buchheit et al. 1985
gastric emptying [4] = conditions: Buchheit et al. 1985; cited from earlier work
gastric emptying [5] = conditions: Gidda et al. 1988; cited from earlier work
man [6] = conditions: Talley et al. 1989, man; cited from earlier work
man [7] = conditions: Gore et al. 1990, man; cited from earlier work
5-HT3 = conditions: in vivo; cited from earlier work
dogs = conditions: cited from earlier work; for antroduodenal motility in dogs: Van Nueten et al. 1989

Compound: COc1cc(N)c(Cl)cc1C(=O)NC1CCN2CCCC1C2 (centres unmarked) [BRL-24924]
- ability to depolarize myenteric neurons, relation to 5-HT3 antagonism (myenteric neurons): unrelated to their properties of 5-HT3 antagonism
- prokinetic activity, correlation with agonist activity at 5-HT4 receptor (5-HT4 receptor [1]): correlate with agonist activity
- peristaltic reflex evoked, receptor mechanism (5-HT4 receptors): mediated through agonism at 5-HT4 receptors

- EC50 (5-HT4 receptor [2]): 2.53 µM
Compound: O=C(N[C@H]1[C@@H]2CC3C[C@H]1CN(C3)C2)N1C(=O)C2(CC2)c2ccccc21 [Example 4, Syn-N-(1-azatricyclo[3.3.1.1^3,7]decan-4-yl)-2'-oxo-spiro[cyclopropane-1,3'-[3'H]indole]-1'(2'H)-carboxamide, monohydrochloride]

Compound: CN1[C@@H]2CC[C@H]1C[C@@H](NC(=O)N1C(=O)C3(CC3)c3ccccc31)C2 [Example 2, Endo-1',2'-dihydro-N-(8-methyl-8-azabicyclo[3.2.1 octan-3-yl)-2'-oxo-spiro[cyclopropane-1,3'-(3'H)-indole]-1'-carboxamide, hydrate hydrochloride]
- EC50 (5-HT4 receptor [2]): 0.79 µM
- Ki (5-HT3 receptor): 0.0041 µM

Compound: NCCc1c[nH]c2ccc(O)cc12 [Serotonin, 5-hydroxytryptamine]
- peristaltic reflex evoked, receptor mechanism (5-HT4 receptors): mediated through agonism at 5-HT4 receptors
- peristalsis in the GI tract (GI tract): promote peristalsis

Compound: CN1[C@@H]2CC[C@H]1C[C@@H](OC(=O)c1cc(Cl)cc(Cl)c1)C2 [MDL 72222]
- guinea pig stomach muscle strip contraction in vitro [3]: enhanced
- gastric emptying rates in vivo (gastric emptying [4]): increases

Compound: Cc1nccn1CC1CCc2c(c3ccccc3n2C)C1=O (centres unmarked) [GR38032]
- gastric emptying (gastric emptying [5]): enhanced
- effect on GI transit in man (conclusion) (man [6]): does not have a major effect on GI transit in man
- mouth-to-cecum transit times (man [6]): did not alter
- small intestinal transit times (man [6]): did not alter
- GI transit (man [7]): failed to accelerate
- colonic transit in man (man [7]): slowed

Compound: CCN(CC)CCNC(=O)c1cc(Cl)c(N)cc1OC [metoclopramide]
- guinea pig stomach muscle strip contraction in vitro [3]: enhanced
- electrical-field stimulated contractions in guinea pig stomach strips ([3]; Gunning and Naylor 1985): enhanced
- gastric emptying rates in vivo (gastric emptying [4]): increases
- 5-HT3-mediated Bezold Jarisch reflex (5-HT3): blocks

- EC50 (5-HT4 receptor [2]): > 10 µM
Compound: CC1(C)C(=O)N(C(=O)NC[C@@H]2CCN3CCC[C@@H]23)c2ccccc21 (relative stereo) [Example 8, Exo-2,3-dihydro-3,3-dimethyl-N-[(hexahydro-1H-pyrrolizin-1S-yl)methyl]-2-oxo-1H-indole-1carboxamide, hydrate hydrochloride]

- EC50 (5-HT4 receptor [2]): > 10 µM
Compound: O=C(NCC12CCCN1CCC2)N1C(=O)C2(CC2)c2ccccc21 [Example 6, 2'-oxo-N-[(hexahydro-1H-pyrrolizin-7a(5H)-yl)-methyl]spiro[cyclopropane-1,3'-[3'H]indole]1'(2'H)carboxamide, monohydrochloride]

Compound: CN1[C@@H]2CC[C@H]1C[C@@H](NC(=O)N1C(=O)C(C)(C)c3ccccc31)C2 [Example 1, Endo-2,3-dihydro-3,3-dimethyl-N-(8-methyl-8-azabicyclo[3.2.1]octan-3-yl)-2-oxo-1H-indole-1-carboxamide, hydrochloride hydrate]
- EC50 (5-HT4 receptor [2]): 1.21 µM
- Ki (5-HT3 receptor): 0.004 µM

- EC50 (5-HT4 receptor [2]): 7.92 µM
Compound: O=C(NCCC12CCCN1CCC2)N1C(=O)C2(CC2)c2ccccc21 [Example 7, 2'-oxo-N-[2-(hexahydro-1H-pyrrolizin-7a(5H)yl)ethyl]spiro[cyclopropane-1,3'-[3'H]indole-1'(2'H)-carboxamide, monohydrochloride]

- EC50 (5-HT4 receptor [2]): 2.22 µM
Compound: O=C(N[C@@H]1[C@@H]2CC3C[C@H]1CN(C3)C2)N1C(=O)C2(CC2)c2ccccc21 [Example 3, Anti-N-(1-azatricyclo[3.3.1.1^3,7]decan-4-yl)-2'-oxo-spiro[cyclopropane-1,3'-[3'H]indole]-1'(2'H)-carboxamide, monohydrochloride]

Compound: O=C(NCC12CCN(CC1)CC2)N1C(=O)C2(CC2)c2ccccc21 [Example 5, N-(1-azabicyclo[2.2.2]octan-4-ylmethyl)-2'-oxo-spiro[cyclopropane-1,3'-[3'H]indole]-1'(2'H)-carboxamide, monohydrochloride]
- EC50 (5-HT4 receptor [2]): > 10 µM

Compound: COc1cc(N)c(Cl)cc1C(=O)NC1CN2CCC1CC2 (centres unmarked) [zacopride]
- gastric emptying (gastric emptying [5]): enhanced

Compound: CN1[C@@H]2CC[C@H]1C[C@@H](OC(=O)c1c[nH]c3ccccc13)C2 [ICS 205-930]
- guinea pig stomach muscle strip contraction in vitro [3]: enhanced
- gastric emptying rates in vivo (gastric emptying [4]): increases
- gastric emptying (gastric emptying [5]): enhanced
- effect on responses to cisapride when coadministered (dogs; Van Nueten et al. 1989, coadministered with cisapride): did not affect
- antroduodenal motility in dogs (dogs): did not

Compound: Cc1[nH]cnc1CCC(=O)c1cn(C)c2ccccc12 [GR65630]
- Bmax (5-HT3 receptor; [3H]-GR65630 radioligand, rat brain cortex membranes): 154 fmol/mg protein
- % Specific Binding (5-HT3 receptor; [3H]-GR65630 radioligand, non-specific binding with 1 uM ICS 205-930): 70%

Compound: COc1cc(N)c(Cl)cc1C(=O)NC1CCN(CCCOc2ccc(F)cc2)CC1OC (centres unmarked) [Cisapride]
- antroduodenal motility in dogs (dogs): enhanced
- ability to depolarize myenteric neurons, relation to 5-HT3 antagonism (myenteric neurons): unrelated to their properties of 5-HT3 antagonism
- prokinetic activity, correlation with agonist activity at 5-HT4 receptor (5-HT4 receptor [1]): correlate with agonist activity
